{"source": "paper PMC6158189", "about": "“A pharmacological probe identifies cystathionine β-synthase as a new negative regulator for ferroptosis” (Cell Death & Disease, 2018)", "key": {"[1]": {"tested_on": "HepG2 cells", "test": "cell viability (CellTiter 96 Aqueous One)", "format": "cell-based, human", "details": "24 h", "experimental": "Fig. 4 CH004 arrests the cell cycle at the S phase. a CH004 reduces the cell viability of HEK293T and HepG2 cells. HEK293T or HepG2 cells were treated with indicated concentrations of CH004 for 24 h before the cell number was analyzed using the CellTiter96® Aqueous One Solution Cell Proliferation Assay (Promega, Materials and Methods). The means at each concentration of one representative experiment are shown as percentages of DMSO (control, 100%). Means ± SDs (n = 3). b Overexpression of hCBS or knock-down of hCBS counteracts the growth inhibition exerted by CH004 in HEK293T cells. Indicated HEK293T stable cell lines were treated with the CH004 or DMSO for 24 h. Then, the cell viability was quantified with the CellTiter 96® Aqueous One Solution Cell Proliferation Assay under the standard protocol (Promega). The means at each concentration are shown as percentages of their respective DMSO controls (100%). Means ± SDs (n = 3). The efficacy for CBS overexpression and knock-down in HEK293T cells was determined by Western blotting using an anti-CBS antibody (3E1, 1:2000; Abnova). c CH004 induces cell death in HEK293T and HepG2 cells. […] The means of percentages of dead cells (DMSO, 100%) from three independent samples are shown in d. Means ± SDs (n = 3). e, f Pharmacological inhibition or genetic knock-down of hCBS in HEK293T cells arrests the cell cycle at S phase. HEK293T cells were incubated with indicated compounds for 12 h, and the DNA content was quantified with propidium iodide to analyze the cell cycle distribution by flow cytometry (e). The cell cycle distributions for HEK293T-shNT and HEK293T-shCBS cells were accordingly analyzed and are shown in f. One representative diagram is shown for each condition. The mean percentages of various cell phases from three independent samples are shown in the respective right panels. Means ± SDs (n = 3). […]\nFigure S15. […] Indicated HEK293T stable cell lines were treated with CH004 at a concentration of 10 µM for 24 h, and the cell viability was then measured using the CellTiter96® Aqueous One Solution Cell Proliferation Assay (Promega). […]"}, "[2]": {"tested_on": "Panc-28 cells", "test": "cell viability (CellTiter 96 Aqueous One)", "format": "cell-based", "details": "24 h", "experimental": "(§1) To measure cell viability and cytotoxicity, HepG2, HEK293T, Huh-7, H22, Panc-28, HCT116 and MDA-MB-231 cells were seeded at a density of ~ 2 × 10^4 cells per well in 96-well plates (Coring, NY, USA) for one day, followed by incubation with DMSO or various concentrations of tested compound for indicated times. Then, the cells were collected to measure the cell viability using the CellTiter 96® Aqueous One Solution Cell Proliferation Assay (Promega, G3581) according to the standard protocols.\n(§2) Figure S11. The effects of CH004 on cell viability in various types of cancer cell lines. (A) Dose-dependent curves of CH004 on cell viability of HepG2 cells (▲), HEK293T cells (○). Percentages of cell viability of CH004 obtained in Figure 4a were fitted to the non-linear equation using GraphPad Prism 5 to get the IC50 values of CH004 in respective cell lines. Means ± SDs (n=3). […] (B) MDA-MB-231 (breast cancer cell cline), HCT116 (colon cancer), Panc-28 cells (pancreas cancer), Huh7 cells (hepatocellular carcinoma) and H22 (mouse liver cancer) were incubated with DMSO (control) or indicated concentrations of CH004 for 24 h in a 96-well plate before assessing cell viability using the CellTiter96® Aqueous One Solution Cell Proliferation Assay (Promega). The data are shown as percentages of control (DMSO, 100%). Means ± SDs (n=3). (C) The dose-dependent curve of CH004 on cell viability. Percentages of cell viability obtained in B were fitted to the non-linear equation using GraphPad Prism 5 to get the IC50 values of CH004 in respective cell lines. […] The experiments were independently repeated twice in triplicates and a representative experiment is shown."}, "[3]": {"tested_on": "Huh7 cells", "test": "cell viability (CellTiter 96 Aqueous One)", "format": "cell-based", "experimental": "as §1, §2"}, "[4]": {"tested_on": "HCT116 cells", "test": "cell viability (CellTiter 96 Aqueous One)", "format": "cell-based", "experimental": "as §1, §2"}, "[5]": {"tested_on": "MDA-MB-231 cells", "test": "cell viability (CellTiter 96 Aqueous One)", "format": "cell-based", "details": "Homo sapiens, MDA-MB-231, 24 h", "experimental": "as §1, §2"}, "[6]": {"tested_on": "H22 mouse liver tumor cells in ICR mice", "details": "10 mg/kg/day i.v.", "experimental": "Fig. 7 CH004 suppresses tumor growth in vivo. a–c CH004 reduces the growth rate of tumors in liver tumor xenograft mice model. Mice bearing liver tumor xenografts were treated with CH004 (10 mg/kg/d), cyclophophamide (CTX, 20 mg/kg/d) or PBS (Vehicle) for 21 days. The tumor volumes were measured every two days during day 6 to day 22 and the data was presented in a (n = 8). […] Mice body weight was measured along with the measurement of tumor volume (n = 8). Means ± SDS. Statistical analyses were performed on the raw data by one-way (c) or two-way ANOVA (a) with Bonferroni post-tests. The significance of the CH004-treated group compared to Vehicle was indicated with $ (a), whereas the comparison of the CTX group to Vehicle was with # (a). $, # or ***p < 0.001\nThe in vivo effect of CH004 on tumor growth was evaluated in a xenograft mice model of liver cancer. The experiment was independently performed by Jiangsu KeyGEN BioTECH Co. LTD (Jiangsu, China) and followed the standard procedures that were established and approved by the local Animal Care and Use Committee. Briefly, H22 mouse liver tumor cells were intraperitoneal injected into female ICR mice (SLAC Laboratory Animal Co. Ltd, Shanghai, China). 8 days later, mice with distended abdomen were killed, and the ascites was collected, washed and resuspended with PBS. 0.1 ml cell suspension with a density of 1 × 10^7/ml was subcutaneously injected into the right dorsum of ICR female mice (~20 g). The mice bearing H22 tumor cells were then randomized into groups (n = 8) on the following day after the implantation. Then, the mice were injected via a tail vein (i.v.) with PBS, CH004 (10 mg/kg) or cyclophosphamide (CTX, a known anticancer drug; 20 mg/kg) once per day and for 21 days. Tumor sizes were measured every 2 days starting from the day 6 using a caliper, and tumor volume was calculated using the formula V = length × width^2 × π / 6. The body weights of mice were recorded under the same conditions. The mice were sacrificed on day 22, and the tumors were taken out and weighted."}}, "note": "Entries after “also recorded” stand apart in the source; their conditions may differ."}
{"molecule": "Cn1nc(Cc2ccccc2)nc2c(=O)n(C)c(=O)nc1-2", "note": "[CH004, 3-benzyl-1,6-dimethylpyrimido[5,4-e][1,2,4]triazine-5,7(1H,6H)-dione]", "values": [{"measurement": "IC50", "setting": "[1]", "value": "~11", "unit": "µM"}, {"measurement": "IC50", "setting": "[1]; Homo sapiens, HepG2, 24 h", "value": "11.3 ± 1.3", "unit": "µM"}, {"measurement": "IC50", "setting": "[2]", "value": "7.2 ± 0.5", "unit": "µM"}, {"measurement": "IC50", "setting": "[3]; 24 h", "value": "~12", "unit": "µM"}, {"measurement": "IC50", "setting": "[3]; Homo sapiens, Huh-7, 24 h", "value": "12.4 ± 1.6", "unit": "µM"}, {"measurement": "IC50", "setting": "[4]; 24 h", "value": 4, "unit": "µM"}, {"measurement": "IC50", "setting": "[4]; Homo sapiens, HCT-116, 24 h", "value": "4.1 ± 1.2", "unit": "µM"}, {"measurement": "IC50", "setting": "[5]", "value": "25.8 ± 3.2", "unit": "µM"}, {"measurement": "reduction of tumor volume or weight", "setting": "[6]; 21-day treatment", "value": "more than half"}, {"measurement": "effect on total body weight", "setting": "[6]; 21 days", "value": "did not substantially affect; also recorded: hardly affects"}, {"measurement": "growth rate of tumor", "setting": "[6]; since day 12 of treatment, p < 0.001", "value": "significantly reduced"}]}
